The test system of assay [1] is drug-sensitive and multidrug-resistant strains of M. tuberculosis. Briefly: Survey of tobramycin MICs. As to conditions: Mycobacterium tuberculosis. It is filed as cell-based.
The subject of assay [2] is Multidrug-Resistant Strains of M. tuberculosis. Briefly: microbe, parasite or virus in culture. Particulars: for MIC: Mycobacterium tuberculosis. It is filed as cell-based, Mycobacterium tuberculosis.

The results in this text go back to US6083922A (priority 1997, dated 2000).

Values after ≈ are worked out from the molar mass of the structure shown. Like-named read-outs stand apart in the source and are kept apart here.

Take `NC[C@H]1O[C@H](O[C@H]2[C@H](O)[C@@H](O[C@H]3O[C@H](CO)[C@@H](O)[C@H](N)[C@H]3O)[C@H](N)C[C@@H]2N)[C@H](N)C[C@@H]1O` [tobramycin]: the MIC in assay [1] is > 128 µg/mL; in assay [1] (read-out: minimal inhibitory concentrations (MICs)), ≤ 8 µg/mL; in assay [2] (read-out: MIC Tobramycin, strain TN565 (resistant to INH, RIF, SM, KAN)) it was > 128 µg/mL; in assay [2] (read-out: MIC Tobramycin, strain TN576 (resistant to INH, RIF, SM, EMB, KAN)), > 128 µg/mL; in assay [2] (read-out: MIC Tobramycin, strain TN587 (resistant to INH, RIF, SM, EMB, KAN)), > 128 µg/mL; in assay [2] (read-out: MIC Tobramycin, strain TN702 (resistant to INH, SM)), 4 µg/mL (≈ 8.56 µM). Moreover, the MIC is 4 µg/mL (≈ 8.56 µM) in assay [2] (read-out: MIC Tobramycin, strain TN715 (resistant to INH, RIF, SM)); 8 µg/mL (≈ 17.1 µM) in assay [2] (read-out: MIC Tobramycin, strain TN768 (resistant to INH, RIF, SM, EMB)); 4 µg/mL (≈ 8.56 µM) in assay [2] (read-out: MIC Tobramycin, strain TN1195 (resistant to INH, SM)); 8 µg/mL (≈ 17.1 µM) in assay [2] (read-out: MIC Tobramycin, strain TN1314 (resistant to INH, RIF)); 4 µg/mL (≈ 8.56 µM) in assay [2] (read-out: MIC Tobramycin, strain TN1811 (resistant to INH, RIF, SM, EMB)); > 128 µg/mL in assay [2] (read-out: MIC Tobramycin, strain TN2015 (resistant to INH, RIF, SM, KAN)). Besides, the MIC is 8 µg/mL (≈ 17.1 µM) in assay [2] (read-out: MIC Tobramycin, strain TN2557 (resistant to INH, RIF, SM)); > 128 µg/mL in assay [2] (read-out: MIC Tobramycin, strain TN3806 (resistant to INH, RIF, SM, EMB, KAN)); 4 to 8 µg/mL (≈ 8.56 to 17.1 µM) in assay [2] (read-out: activity against multidrug-resistant strains). The “sensitivity of multidrug-resistant strains to tobramycin” value in assay [2] is “sensitive and nonresistant”.
